Data: patent publication US5814654A, “Substituted guanidine derivatives” (Sumitomo Pharmaceuticals Company, Limited, priority 1996, dated 1998)

target: T1, Na+/H+ exchange transport system (Rattus norvegicus, UniProt P26431); assay: Inhibitory effect on the Na+/H+ exchange transport system (in vitro), change in intracellular pH during acid loading; assay type: cell-based; conditions: vascular smooth muscle cells isolated from the rat thoracic aorta
T1 construct: using the vascular smooth muscle cells isolated from the rat thoracic aorta; endogenous in cells; host or cells: vascular smooth muscle cells isolated from the rat thoracic aorta
Description: Inhibitory effect on the Na+/H+ exchange transport system (in vitro)
The test was carried out according to the method of Yamori et al. (J. Hypertension, 8, 153 (1990)). In detail, inhibitory effect on the Na+/H+ exchange transport system was evaluated by the change in intracellular pH during acid loading, using the vascular smooth muscle cells isolated from the rat thoracic aorta.

T1 sequence (P26431 whole entry): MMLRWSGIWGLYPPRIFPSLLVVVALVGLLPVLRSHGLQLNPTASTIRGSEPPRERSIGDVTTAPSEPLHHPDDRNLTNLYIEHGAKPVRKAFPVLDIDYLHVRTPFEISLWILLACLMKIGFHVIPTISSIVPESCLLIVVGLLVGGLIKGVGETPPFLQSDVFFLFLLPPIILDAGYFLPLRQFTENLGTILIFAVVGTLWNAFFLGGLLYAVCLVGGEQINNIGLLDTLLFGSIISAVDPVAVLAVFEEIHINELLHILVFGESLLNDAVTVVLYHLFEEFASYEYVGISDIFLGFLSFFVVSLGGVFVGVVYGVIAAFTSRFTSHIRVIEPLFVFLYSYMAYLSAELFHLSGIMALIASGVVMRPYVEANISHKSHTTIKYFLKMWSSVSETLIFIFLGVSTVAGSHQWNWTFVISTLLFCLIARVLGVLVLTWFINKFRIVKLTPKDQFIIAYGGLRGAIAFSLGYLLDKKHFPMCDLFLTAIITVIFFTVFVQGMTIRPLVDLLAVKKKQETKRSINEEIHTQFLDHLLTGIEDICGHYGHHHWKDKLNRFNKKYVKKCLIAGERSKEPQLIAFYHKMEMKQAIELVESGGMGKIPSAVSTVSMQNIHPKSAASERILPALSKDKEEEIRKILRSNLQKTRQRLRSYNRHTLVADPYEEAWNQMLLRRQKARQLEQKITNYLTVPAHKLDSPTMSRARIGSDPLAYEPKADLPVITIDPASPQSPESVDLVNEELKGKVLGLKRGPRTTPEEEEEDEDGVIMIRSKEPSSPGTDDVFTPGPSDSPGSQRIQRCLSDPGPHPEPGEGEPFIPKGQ

Row | IC50 | SMILES
1 | 150 nM | Cn1c(C(=O)N=C(N)N)c2c3c(cccc31)CCC2 [Example 2, N-(aminoiminomethyl)-1,3,4,5-tetrahydro-1-methyl-benz[cd]indole-2-carboxamide methanesulfonate]
2 | 4000 nM | NC(N)=NC(=O)c1[nH]c2cccc3c2c1CCC3=O [Example 1, N-(aminoiminomethyl)-1,3,4,5-tetrahydro-5-oxo-benz[cd]indole-2-carboxamidemethanesulfonate]
3 | 700 nM | NC(N)=NC(=O)c1[nH]c2cccc3c2c1CCC3 [Example 3, N-(aminoiminomethyl)-1,3,4,5-tetrahydro-benz[cd]indole-2-carboxamide methanesulfonate]
